“And” between values parts separate entries of the source, which are not always exact repeats. Equal entries are not always repeated.
What was measured:
[1] = biological target: Sialic acid-binding Ig-like lectin 9 (Homo sapiens, UniProt Q9Y336); test: Hs-Siglec9 ALPHAscreen SOP 20170721
[2] = microbe, parasite or virus in culture; details: Mycobacterium tuberculosis, 96 h, read-out: pIC50 (converted)
[3] = microbe, parasite or virus in culture; details: Mycobacterium tuberculosis, 72 h, read-out: pIC50 (converted)

Sialic acid-binding Ig-like lectin 9, sequence (Q9Y336 whole entry): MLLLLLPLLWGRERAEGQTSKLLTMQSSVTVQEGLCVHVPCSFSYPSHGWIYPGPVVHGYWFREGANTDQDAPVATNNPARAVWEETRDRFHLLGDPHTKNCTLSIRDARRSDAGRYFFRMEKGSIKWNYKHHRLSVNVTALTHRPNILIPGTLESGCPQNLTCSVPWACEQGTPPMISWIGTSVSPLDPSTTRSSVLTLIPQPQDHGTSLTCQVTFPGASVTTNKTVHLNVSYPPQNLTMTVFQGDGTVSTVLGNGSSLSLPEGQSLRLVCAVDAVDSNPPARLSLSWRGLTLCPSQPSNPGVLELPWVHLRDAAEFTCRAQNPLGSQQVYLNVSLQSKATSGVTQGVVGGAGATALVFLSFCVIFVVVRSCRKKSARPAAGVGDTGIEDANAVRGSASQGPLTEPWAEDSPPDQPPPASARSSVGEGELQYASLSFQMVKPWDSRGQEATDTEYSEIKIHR

Compound	IC50 [1]	other results
FC(F)(F)c1cc(C2CCCN(c3ncccn3)C2)n2ccnc2n1 (stereo not drawn)	> 30.2 µM	–
Cc1occc1C(=O)N1CCO[C@H]2[C@H](Oc3cccnc3)CC[C@@H]21	> 30.2 µM	–
COCCN(CCOC)C(=O)c1ccoc1C	> 30.2 µM	–
O=C1Nc2ccccc2CN(CC2CC2)C12CCNC2 (stereo not drawn)	> 30.2 µM	–
COC(=O)CC1CCN(C(=O)c2ccc(-n3nnnc3C)cc2)CC1	> 30.2 µM	–
c1cnc(N2CCC3(CCN(CC4CCOC4)CC3)C2)nc1 (stereo not drawn)	> 30.2 µM	–
O=C1Nc2ccccc2CN(CC2CCCC2)C12CCNC2 (stereo not drawn)	> 30.2 µM	IC50 [2]: > 50.1 µM; IC50 [3]: 22.7 µM
COc1ccc(OC)c(C(=O)N2CCC(Nc3cccnc3)CC2)c1	> 30.2 µM	–
Cc1cc(S(=O)(=O)NC(C)(C)CN)c(F)cc1F	> 30.2 µM	–
c1ccc([C@@H]2CN(Cc3cccnc3)C[C@H]2c2cc[nH]n2)cc1	> 30.2 µM	–
COc1ccc(C(C)NCc2scnc2C)cc1Cn1cccn1 (stereo not drawn)	> 30.2 µM	–
Cc1nccc(N2C[C@@H](CN3CCCC3)[C@@H](CO)C2)n1	> 30.2 µM	–
CC(C)n1cnnc1C1CCCN(S(=O)(=O)c2c[nH]cn2)C1 (stereo not drawn)	> 30.2 µM	–
CC(=O)NCCCSC1CCN(c2ccccc2Cl)C1=O (stereo not drawn)	> 30.2 µM	–
O=C(NCCc1nncn1C1CC1)C1SCCc2sccc21 (stereo not drawn)	> 30.2 µM	–
Cc1nc(C)c(C(=O)N2CCC(Nc3cccnc3)CC2)s1	9.22 µM and 7.13 µM and 9.36 µM and 3.87 µM	–
Cc1ccnc(NC(=O)c2cc(C)oc2C)c1	> 30.2 µM	–
CC(c1ccc(Cl)cc1)N1CCN(CCNS(C)(=O)=O)CC1 (stereo not drawn)	> 30.2 µM	–
CC(=O)NCC(=O)N1Cc2cc(C#N)ccc2C1c1cnco1 (stereo not drawn)	> 30.2 µM	–
CN(C)C(=O)COC[C@]12COC[C@H]1CN(Cc1ccccc1)C2	> 30.2 µM	–
Cc1cc(CNC(=O)c2cnoc2C)c(C)o1	> 30.2 µM	–
O=C(C1CCOCC1)N1CCO[C@H]2[C@H](Oc3ccccn3)CC[C@@H]21	> 30.2 µM	–
c1cnc(N2CCCC3(CCN(CC4CCOC4)CC3)C2)nc1 (stereo not drawn)	> 30.2 µM	–
CCOC(=O)[C@H]1[C@@H](O)C(=O)N(C)C12CCN(C(=O)OC)CC2	> 30.2 µM	–

Compound	IC50 [1]	other results
COc1cc(C)sc1C(=O)N1CCC(Nc2cccnc2)CC1	> 30.2 µM	IC50 [2]: > 50.1 µM; IC50 [3]: > 50.1 µM
O=C(NCCc1nncn1C1CC1)C1(c2ccccc2)CCC1	> 30.2 µM	–
CC(C)n1cnnc1C1CCCN(S(=O)(=O)CCCF)C1 (stereo not drawn)	> 30.2 µM	–
CCn1ncnc1C1CC(=O)NCc2nc(N3CCOCC3)sc21 (stereo not drawn)	> 30.2 µM	–
CCCN1Cc2ccccc2NC(=O)C12CCNC2 (stereo not drawn)	> 30.2 µM	–
COC(=O)C(O)C1CCN(CCc2ccccn2)CC1 (stereo not drawn)	> 30.2 µM	–
CC(C)CCS(=O)(=O)N1CCCC(c2nncn2C(C)C)C1 (stereo not drawn)	> 30.2 µM	–
CCOC(=O)Cc1csc(NC(=O)c2cc3n(n2)CCCO3)n1	> 30.2 µM	–
COc1ccc(C(C)NCc2cscn2)cc1Cn1cccn1 (stereo not drawn)	> 30.2 µM	–
COC(=O)C(O)C1CCN(CCc2ccncc2)CC1 (stereo not drawn)	> 30.2 µM	–
CCOC(=O)[C@H]1[C@@H](O)C(=O)N(C)C12CCN(C(=O)OCC)CC2	> 30.2 µM	–
CCn1c(C)cc(C(=O)N2CCC(Nc3cccnn3)CC2)c1C	> 30.2 µM	–
CCc1cc(N2CCN3CCCCC3C2)n2nccc2n1 (stereo not drawn)	> 30.2 µM	–
CCc1cc(N2CC(N3CCCCC3C)C2)n2nccc2n1 (stereo not drawn)	> 30.2 µM	–
CN1CCCN(C[C@@H]2CN(c3nc(C(N)=O)cs3)C[C@@H]2CO)CC1	> 30.2 µM	–
CCN1CC2(CCN(C(=O)N(C)C)CC2)COc2ccccc2S1(=O)=O	> 30.2 µM	–
Cc1ccnc(N2CCCC(c3nncn3C3CC3)C2)n1 (stereo not drawn)	> 30.2 µM	–
Cc1nc(C2CCCN(c3ncc(Br)cn3)C2)no1 (stereo not drawn)	> 30.2 µM	–
CN(C)C(=O)COC[C@]12COC[C@H]1CN(Cc1ccco1)C2	> 30.2 µM	–
CCn1c(C)cc(C(=O)N2CCC(NC(=O)c3cc(C)no3)CC2)c1C	> 30.2 µM	–
CCc1cc(N2CCC(N3CCSCC3)CC2)n2nccc2n1	> 30.2 µM	–
O=C(C1=CCCC1)N1CCO[C@H]2[C@@H](Oc3ccccn3)CC[C@@H]21	> 30.2 µM	–
CCn1ncc2c1C(COC)CN(Cc1ccco1)C2 (stereo not drawn)	> 30.2 µM	–
CCOC(=O)[C@H]1[C@@H](O)C(=O)N(C)C12CCN(C(=O)CC1CCCC1)CC2	> 30.2 µM	–

Compound	IC50 [1]	other results
CCn1ncc2c1C(COC)CN(Cc1cccnc1)C2 (stereo not drawn)	> 30.2 µM	–
CCn1ncc2c1C(COC)CN(Cc1ccc(C)o1)C2 (stereo not drawn)	> 30.2 µM	–
NC(=O)c1csc(N2C[C@@H](CN3CCCCC3)[C@@H](CO)C2)n1	> 30.2 µM	–
CN(C)C(=O)COC[C@]12COC[C@H]1CN(CC1CCC1)C2	> 30.2 µM	–
CN1CC2(CCN(C(=O)C3CCC3)CC2)COc2ccccc2S1(=O)=O	> 30.2 µM	–
COC(=O)CC1CCN(C(=O)c2ccc(C)cc2)CC1	> 30.2 µM	–
FC(F)(F)CCc1ccnc(NCc2csc(N3CCOCC3)n2)n1	> 30.2 µM	–
Cc1oc(C)c(C(=O)NCc2cccnc2)c1C	> 30.2 µM	–
CCn1cnnc1C1CCN(C(=O)c2cc(C)n(CC)c2C)CC1	> 30.2 µM	–
CCn1nnc2c1C(COC)CN(Cc1ccsc1)C2 (stereo not drawn)	> 30.2 µM	–
Cc1occc1C(=O)N1CCCS1(=O)=O	> 30.2 µM	–
CCOC(=O)CNC(=O)c1cccnc1Oc1ccc(Cl)cc1	> 30.2 µM	–
CN(C)C(=O)COC[C@]12COC[C@H]1CN(CCc1ccccc1)C2	> 30.2 µM	–
COc1ccc(C(C)NCc2cccs2)cc1Cn1cccn1 (stereo not drawn)	> 30.2 µM	–
N#Cc1ccc2c(c1)CN(C(=O)c1nc[nH]n1)C2c1cnco1 (stereo not drawn)	> 30.2 µM	–
CC(=O)NCCCSC1CCN(c2ccccc2F)C1=O (stereo not drawn)	> 30.2 µM	–
Cc1nn(C)c(C)c1CCC(=O)NCc1csc(N2CCCC2)n1	> 30.2 µM	–
Cc1cc(C(=O)N2CCO[C@H]3[C@H](Oc4ccccn4)CC[C@@H]32)c(C)[nH]1	> 30.2 µM	–
CCc1cc(C(=O)N2CCCC(c3cc(=O)nc4n3CCC4)C2)no1 (stereo not drawn)	> 30.2 µM	–
COCCN1CCC2(CC1)COc1ccccc1S(=O)(=O)N(C)C2	> 30.2 µM	–
COC(=O)C(O)C1CCN(Cc2cccc(-n3cccn3)c2)CC1 (stereo not drawn)	> 30.2 µM	–
CS(=O)(=O)N1Cc2ccnn2CC(C(=O)NCc2cccnc2)C1 (stereo not drawn)	> 30.2 µM	–
Cc1cnn(CC2CCCN2C(=O)c2cccc(-n3ccc(C)n3)c2)c1 (stereo not drawn)	> 30.2 µM	–
CCn1ncc2c1C(COC)CN(Cc1cnn(C)c1)C2 (stereo not drawn)	> 30.2 µM	–

Compound	IC50 [1]	other results
COc1c(C(=O)NCc2cccnc2)nnn1Cc1ccc(C)cc1	> 30.2 µM	–
CC(C)n1cnnc1C1CCCN(S(=O)(=O)CCCC#N)C1 (stereo not drawn)	> 30.2 µM	–
Cc1cncc(C(=O)N2CCO[C@H]3[C@H](Oc4ccccn4)CC[C@@H]32)c1	> 30.2 µM	–
Cc1occc1C(=O)N1CCOC2(CCCC2)C1	> 30.2 µM	–
CCn1ncc2c1C(COC)CN(Cc1ccc(OC)cc1)C2 (stereo not drawn)	> 30.2 µM	–
Cc1cc(C(=O)N2CCCS2(=O)=O)c(C)o1	> 30.2 µM	–
O=C(C1CCN(c2nc3nc[nH]c(=O)c3s2)CC1)N1CCCCC1	> 30.2 µM	–
Cc1nc(CN2C[C@@H]3COC[C@]3(COCC(=O)N(C)C)C2)cs1	> 30.2 µM	–
COc1cc(C(=O)N2CCC(Nc3cccnc3)CC2)ccc1C	> 30.2 µM	–
CC(C)c1cc(C(=O)N2CCCC(c3cc(=O)nc4n3CCC4)C2)no1 (stereo not drawn)	> 30.2 µM	–
CC(C)NC(=O)c1csc(NC2CC2)n1	> 30.2 µM	–
CC(C)NC(=O)N1CCC2(CC1)COc1ccccc1S(=O)(=O)N(C)C2	> 30.2 µM	–
CCC(=O)NCC(=O)NCc1cc(Br)ccc1OC(F)F	> 30.2 µM	–
c1cnc(N2CCC3(CCN(CC4CCCC4)CC3)C2)nc1	> 30.2 µM	–
Cn1ncc2c1C(COCC1CC1)CN(Cc1ccsc1)C2 (stereo not drawn)	> 30.2 µM	IC50 [2]: > 50.1 µM
CCS(=O)(=O)CCNC(=O)c1cc2n(n1)CCCO2	> 30.2 µM	–
CCOc1cccc(C2CC(=O)NCc3nc(N4CCCC4)sc32)c1 (stereo not drawn)	> 30.2 µM	–
CN1CC2(CCN(CC3CC3)CC2)COc2ccccc2S1(=O)=O	> 30.2 µM	–
CCn1ncc2c1C(COC)CN(Cc1ccc(F)cc1)C2 (stereo not drawn)	> 30.2 µM	–
CCOC(=O)[C@H]1[C@@H](O)C(=O)N(C)C12CCN(C(=O)c1ccccc1)CC2	> 30.2 µM	–
CCc1cc(N2CCCC(c3noc(CC)n3)C2)ncn1 (stereo not drawn)	> 30.2 µM	–
O=C1Nc2ccccc2CNC12CCN(CC1CCNC1)CC2 (stereo not drawn)	> 30.2 µM	–
Cc1cc(S(=O)(=O)NCC(C)(C)N)c(F)cc1F	> 30.2 µM	–
O=C(N1CCCC1)N1CCO[C@H]2[C@@H](Oc3ccccn3)CC[C@@H]21	> 30.2 µM	–

Compound	IC50 [1]	other results
CCOCC1CN(Cc2ccsc2)Cc2cnn(C)c21 (stereo not drawn)	> 30.2 µM	–
CCC(C(=O)NCc1csc(N2CCOCC2)n1)n1cccn1 (stereo not drawn)	> 30.2 µM	–
CCc1nc(C2CCCN2c2ncc(Br)cn2)no1 (stereo not drawn)	> 30.2 µM	–
CC(=O)N[C@@H]1CN(c2nc(C(N)=O)cs2)C[C@H]1c1ccc(C)o1	> 30.2 µM	–
CSc1nccc(N2C[C@@H](CN3CCCCC3)[C@@H](CO)C2)n1	> 30.2 µM	–
Cc1cc(S(=O)(=O)NCC(C)(O)CN(C)C)c(F)cc1F (stereo not drawn)	> 30.2 µM	–
COCC(=O)N1CCC2(CC1)COc1ccccc1S(=O)(=O)N(C)C2	> 30.2 µM	–
CNc1ncc(CN(C)C(=O)c2cccc(-n3cccn3)c2)cn1	> 30.2 µM	–
O=C(NC1CC1)C1CCN(c2nc3nc[nH]c(=O)c3s2)CC1	> 30.2 µM	–
Cc1cc(C(=O)NC2CC(=O)N(C(C)C)C2=O)c(C)n1C(C)C (stereo not drawn)	> 30.2 µM	–
O=C1Nc2ccccc2CNC12CCN(CC1CCCC1)CC2	> 30.2 µM	–
CCN(C(=O)c1cc(C)oc1C)C1CC1	> 30.2 µM	–
CCOC(=O)[C@H]1[C@@H](O)C(=O)N(C)C12CCN(C(=O)CC(C)C)CC2	> 30.2 µM	–
Cc1csc(CN2C[C@@H]3COC[C@]3(COCC(=O)N(C)C)C2)n1	> 30.2 µM	–
COCCC1(C(=O)NCCc2nncn2C2CC2)CCC1	> 30.2 µM	–
Cc1nc(CC(=O)NCc2csc(N3CCCC3)n2)cs1	> 30.2 µM	–
COC(=O)CC1CCN(C(=O)c2ccccc2-n2nnnc2C)CC1	> 30.2 µM	–
Cc1ccsc1CN1C[C@@H]2COC[C@]2(COCC(=O)N(C)C)C1	> 30.2 µM	–
O=C1Nc2ccccc2CNC12CCN(CC1CC1)CC2	> 30.2 µM	–
Cc1cc(C(=O)N2CCC(Nc3cccnc3)CC2)c(C)s1	> 30.2 µM	–
COc1ccc([C@@H]2CN(Cc3ccncc3)C[C@H]2c2cc[nH]n2)cc1	> 30.2 µM	–
O=c1[nH]nc(-c2cccs2)c2sc(N3CCOCC3)nc12	> 30.2 µM	–

From ChEMBL document CHEMBL3988442, “University of Dundee, Small-Polar-MMV Screening Library” (2021)
